Reference: US6451576B1, “Sesquiterpene synthases from grand fir (Abies grandis), and methods of use” (Washington State University Research Foundation, priority 1998, dated 2002)

Target: T1, recombinant AG1 protein (SEQ ID No:13), E-α-bisabolene synthase (Abies grandis, UniProt O81086)
T1 construct: GST (fusion partner of vector pGEX-4T-2); made in house; host or cells: E. coli XL1-Blue/pGAG1
T1 sequence (O81086 1-817): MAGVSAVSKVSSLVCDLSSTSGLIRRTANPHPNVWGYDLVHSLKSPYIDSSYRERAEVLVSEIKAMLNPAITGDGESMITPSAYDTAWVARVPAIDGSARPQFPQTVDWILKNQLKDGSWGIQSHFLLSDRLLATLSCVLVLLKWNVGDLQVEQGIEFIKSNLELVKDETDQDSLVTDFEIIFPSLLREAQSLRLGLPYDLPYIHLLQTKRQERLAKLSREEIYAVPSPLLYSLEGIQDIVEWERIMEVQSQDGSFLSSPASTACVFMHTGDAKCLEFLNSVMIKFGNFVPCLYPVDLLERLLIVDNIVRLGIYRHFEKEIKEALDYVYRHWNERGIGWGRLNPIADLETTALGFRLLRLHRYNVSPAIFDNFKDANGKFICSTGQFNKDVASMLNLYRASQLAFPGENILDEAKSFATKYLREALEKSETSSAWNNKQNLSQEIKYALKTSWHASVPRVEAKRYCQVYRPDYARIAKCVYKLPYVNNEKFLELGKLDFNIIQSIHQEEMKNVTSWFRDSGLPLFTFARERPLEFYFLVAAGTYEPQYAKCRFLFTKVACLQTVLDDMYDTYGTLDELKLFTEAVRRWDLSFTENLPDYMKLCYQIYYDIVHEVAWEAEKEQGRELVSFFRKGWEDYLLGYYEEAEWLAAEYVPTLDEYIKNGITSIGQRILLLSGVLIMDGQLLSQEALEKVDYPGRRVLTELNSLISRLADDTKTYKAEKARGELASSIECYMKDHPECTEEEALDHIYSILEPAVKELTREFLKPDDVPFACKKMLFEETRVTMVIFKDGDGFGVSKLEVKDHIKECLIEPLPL
Assay: Monoterpene, sesquiterpene and diterpene synthase assays of recombinant AG1 protein expressed in E. coli
Type: biochemical
Settings: extracts of XL1-Blue/pGAG1, 31° C., 2 h
Protocol: Expression of cDNA Clone AG1 (SEQ ID No:12) in E. coli. Plasmid pGAG1 was transformed into E. coli XL1-Blue (Sambrook, J., et al., (1989) Molecular Cloning: A Laboratory Manual (Cold Spring Harbor Lab., Cold Spring Harbor, N.Y.), 2nd Ed). The resulting bacterial strain E. coli XL1-Blue/pGAG1 was grown at 37° C. in 5 ml of LB medium (Sambrock, J., et al., (1989) Molecular Cloning. A Laboratory Manual (Cold Spring Harbor Lab., Cold Spring Harbor, N.Y.), 2nd Ed) supplemented with 100 μg ampicillin/ml and 12.5 μg tetracycline/ml to A600=1.0, then induced by addition of 1 mM isopropyl-1-thio-β-D-galactopyranoside and grown for another 12 h at 20° C. Cells were harvested by centrifugation (2000×g, 10 min) and resuspended in either 1 ml monoterpene synthase assay buffer, 1 ml sesquiterpene synthase assay buffer, or 1 ml diterpene synthase assay buffer (Bohlmann, J., et al., J. Biol. Chem. 272:21784-21792(1997)). […]
Characterization of Products of Recombinant E-α-Bisabolene Synthase Encoded by cDNA Clone AG1 (SEQ ID No:12) in E. coli. […] Mass spectra were compared to those of authentic standards and analyzed by Hewlett-Packard Chemstation software. […]

SMILES | conversion of substrate to terpene olefin
CC(C)=CCC/C(C)=C/CC/C(C)=C/CC/C(C)=C/COP(=O)(O)OP(=O)(O)O [geranylgeranyl diphosphate, reference compound] | no diterpene synthase activity
CC(C)=CCC/C(C)=C/COP(=O)(O)OP(=O)(O)O [geranyl diphosphate, reference compound] | inefficiently converted
